{
  "source": "patent US20020037872A1",
  "about": "“N6 heterocyclic 5' modified adenosine derivatives” (CV Therapeutics, Inc., priority 1999, published 2002)",
  "key": {"A1 receptor [1]": {"biological_target": "T1, A1 receptor (Sus scrofa, UniProt I3LEN5)", "T1 sequence (I3LEN5 1-326)": "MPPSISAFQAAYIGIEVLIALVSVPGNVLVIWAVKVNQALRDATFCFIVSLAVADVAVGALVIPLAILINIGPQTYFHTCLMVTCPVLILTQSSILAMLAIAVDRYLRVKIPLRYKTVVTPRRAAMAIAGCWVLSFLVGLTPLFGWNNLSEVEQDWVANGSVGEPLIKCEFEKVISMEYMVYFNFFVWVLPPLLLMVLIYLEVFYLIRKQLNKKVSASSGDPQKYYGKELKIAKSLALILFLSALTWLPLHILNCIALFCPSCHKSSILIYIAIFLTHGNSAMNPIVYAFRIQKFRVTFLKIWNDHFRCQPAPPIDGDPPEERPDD", "assay": "Competitive binding assay, pig striatum membrane prep, [3H]CPX", "conditions": "[3H]CPX 2 nM, pig striatal membranes", "protocol": "Competitive Binding Assay Pig striatum were prepared by homogenation in 50 mM Tris buffer (5× volume of tissue mass pH=7.4). After centrifilgation at 19,000 rpm for 25 minutes at 4° C., the supernatant was discarded, and the process was repeated twice. Compositions of this invention were assayed to determine their affinity for the A1 receptor in a pig striatum membrane prep or a DDT, membrane prep. Briefly, 0.2 mg of pig striatal membranes or DDT, cell membranes were treated with adenosine deaminase and 50 mM Tris buffer (pH=7.4) followed by mixing. To the pig membranes was added 2 μL of serially diluted DMSO stock solution of the compounds of this invention at concentrations ranging from 100 microM to 10 nM. The control received 2 microL of DMSO alone, then the antagonist [^3H] 8-cyclopentylxanthine (CPX) for pig striatum or the agonist [^3H] 2-chloro-6-cyclopentyladenosine (CCPA) for DDT, membranes in Tris buffer (50 mnM, pH of 7.4) was added to achieve a final concentration of 2 nM. After incubation at 23 C for 2 h, the solutions were filtered using a membrane harvester using multiple washing of the membranes (3×). The filter disks were counted in scintillation cocktail affording the amount of displacement of triated CPX or by the competitive binding compositions of this invention. […]"}, "A1 adenosine receptor": {"biological_target": "T2, A1 adenosine receptor (Mesocricetus auratus, UniProt A0A1U8BVR4)", "T2 construct": "endogenous in cells; host or cells: DDT1 (DDT1 MF-2) hamster vas deferens smooth muscle cells", "T2 sequence (A0A1U8BVR4 1-326)": "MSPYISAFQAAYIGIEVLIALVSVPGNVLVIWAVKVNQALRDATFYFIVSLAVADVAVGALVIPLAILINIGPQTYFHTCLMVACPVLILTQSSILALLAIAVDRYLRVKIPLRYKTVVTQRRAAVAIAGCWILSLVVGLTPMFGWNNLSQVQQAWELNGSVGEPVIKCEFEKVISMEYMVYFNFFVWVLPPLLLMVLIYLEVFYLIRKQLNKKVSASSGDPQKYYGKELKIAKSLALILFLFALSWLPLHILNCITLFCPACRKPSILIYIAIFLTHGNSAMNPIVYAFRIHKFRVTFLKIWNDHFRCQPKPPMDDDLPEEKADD", "assay": "[35S]GTPγS binding assay, A1-agonist stimulated", "type": "biochemical, hamster", "conditions": "[…], agonist stimulated [35S]GTPγS binding, CPA = 100%", "how_it_was_run": "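Membranes in 50 mM Tris-HCl pH 7.4, 5 mM MgCl2, 100 mM NaCl, 1 mM DTT used for A1-agonist-stimulated [35S]GTPγS binding, read by filtration. Nonspecific binding defined with 10 μM GTPγS. Saturation runs used 0.5 nM [35S]GTPγS with 0.5–1000 nM GTPγS.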"}, "A1 receptor [2]": {"biological_target": "T3, A1 receptor (Mesocricetus auratus, UniProt A0A1U8BVR4)", "T3 construct": "endogenous in cells; host or cells: DDT1 (DDT1 MF-2) hamster vas deferens smooth muscle cells", "T3 sequence (A0A1U8BVR4 1-326)": "T2 sequence (A0A1U8BVR4 1-326)", "assay": "Competitive binding assay, DDT1 cell membranes, [3H]CCPA", "set-up": "species or system hamster", "conditions": "[3H]CCPA 2 nM, DDT1 cell membranes; read-out: Ki-DDT1 cell membrane"}},
  "data": [
    {"smiles": "CNC(=O)OC[C@H]1O[C@@H](n2cnc3c(N[C@@H]4CCOC4)ncnc32)[C@H](O)[C@@H]1O", "note": "[Compound 6, (5-16[((3R)oxolan-3-yl)aminolpurin-9-yl)(3S,2R,4R,5R)-3,4dihydroxyoxolan-2yl)methoxyl-N-methylearboxamide]", "values": [
      {"measurement": "Ki", "setting": "A1 receptor [1]", "result": 228, "unit": "nM"},
      {"measurement": "Emax", "setting": "A1 adenosine receptor", "result": 48, "unit": "%"},
      {"measurement": "Ki", "setting": "A1 receptor [2]", "result": 178, "unit": "nM"}
    ]}
  ]
}
